Laboratory results from US20070184519A1, “Peptides, polypeptides, and proteins of reduced immunogenicity and methods for their production” (priority 2003, published 2007).
pIC50: −log10 of the molar value. Where two headings read alike, the source gives them in different places.

How the values were obtained:
DRB1*0301 = molecular target: T1, DRB1*0301 (Homo sapiens, UniProt P01903+P01911, A100K/A102G/A103R/A169T/F55Y/I96L/K41T/L162R/M171V/P40S/Q125H/Q178H/Q39Y/R42S/S66N/T106N/T262R/W38E/Y61H); experiment: Class II peptide-binding assay DRB1*0301 (DR3)
T1 construct: Epstein-Barr virus (EBV) transformed homozygous cell lines were used as sources of human HLA Class II molecules; endogenous in cells; host or cells: MAT (EBV-transformed homozygous B cell line)
T1 sequence (P01903 26-254, other chains not shown): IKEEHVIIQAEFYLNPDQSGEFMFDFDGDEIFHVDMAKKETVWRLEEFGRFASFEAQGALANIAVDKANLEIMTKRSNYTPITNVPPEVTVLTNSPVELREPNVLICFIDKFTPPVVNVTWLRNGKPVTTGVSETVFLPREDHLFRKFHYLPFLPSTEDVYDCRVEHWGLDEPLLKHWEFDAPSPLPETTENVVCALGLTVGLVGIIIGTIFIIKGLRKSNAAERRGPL

DRB1*0401 = molecular target: T2, DRB1*0401 (Homo sapiens, UniProt P01903+P01911, A100K/A169T/F76Y/I96L/K127E/L162R/M171V/N62H/P40V/Q125Y/R42H/S133A/S149N/S66Y/V115G/V209L/W38E); experiment: Class II peptide-binding assay DRB1*0401 (DR4w4)
T2 construct: Epstein-Barr virus (EBV) transformed homozygous cell lines were used as sources of human HLA Class II molecules; endogenous in cells; host or cells: PREISS (EBV-transformed homozygous B cell line)

DRB1*0701 = molecular target: T3, DRB1*0701 (Homo sapiens, UniProt P01903+P01911, A100R/A102G/A103Q/D57E/D86V/E43K/F76Y/K127E/L162R/M171V/P40G/Q125H/Q99D/R33Q/R42Y/R54Q/S133A/S66F/T210M/V115G/Y107V/Y59L/Y89S); experiment: Class II peptide-binding assay DRB1*0701 (DR7)
T3 construct: Epstein-Barr virus (EBV) transformed homozygous cell lines were used as sources of human HLA Class II molecules; endogenous in cells; host or cells: PITOUT (EBV-transformed homozygous B cell line)

DRB1*1101 = molecular target: T4, DRB1*1101 (Homo sapiens, UniProt P01903+P01911, A100R/A169T/A87E/I96F/K41T/L162R/M171V/P40S/Q125H/Q178H/Q39Y/Q99D/R42S/S66Y/T262R/V115G/W38E); experiment: Class II peptide-binding assay DRB1*1101 (DR5w11)
T4 construct: Epstein-Barr virus (EBV) transformed homozygous cell lines were used as sources of human HLA Class II molecules; endogenous in cells; host or cells: SWEIG (EBV-transformed homozygous B cell line)
T4 sequence (P01903 26-254, other chains not shown): as above

DRB3*0101 = molecular target: T5, DRB3*0101 (Homo sapiens, UniProt P01903+P79483); experiment: Class II peptide-binding assay DRB3*0101 (DR52a)
T5 construct: expressed in transfected cells; host or cells: transfected fibroblasts TR81.19

DRB4*0101 = molecular target: T6, DRB4*0101 (Homo sapiens, UniProt P01903+P13762, G164S); experiment: Class II peptide-binding assay DRB4*0101 (DRw53)
T6 construct: expressed in transfected cells; host or cells: transfected fibroblasts L257.6

DRB5*0101 = molecular target: T7, DRB5*0101 (Homo sapiens, UniProt P01903+Q30154); experiment: Class II peptide-binding assay DRB5*0101 (DR2w2a)
T7 construct: Epstein-Barr virus (EBV) transformed homozygous cell lines were used as sources of human HLA Class II molecules; endogenous in cells; host or cells: GM3107 (EBV-transformed homozygous B cell line)

DRB1*0101 = molecular target: T8, DRB1*0101 (Homo sapiens, UniProt P01903+P01911, A100R/D57E/F55L/F60I/F76Y/I96L/L162R/M171V/P40L/Q125E/R42F/V115G/Y59C); experiment: Class II peptide-binding assay DRB1*0101 (DR1)
T8 construct: Epstein-Barr virus (EBV) transformed homozygous cell lines were used as sources of human HLA Class II molecules; endogenous in cells; host or cells: LG2 (EBV-transformed homozygous B cell line)

DRB1*0405 = molecular target: T9, DRB1*0405 (Homo sapiens, UniProt P01903+P01911, A100R/A169T/D86S/F76Y/I96L/K127E/L162R/M171V/N62H/P40V/Q125Y/R42H/S133A/S149N/S66Y/V115G/V209L/W38E); experiment: Class II peptide-binding assay DRB1*0405 (DR4w15)
T9 construct: Epstein-Barr virus (EBV) transformed homozygous cell lines were used as sources of human HLA Class II molecules; endogenous in cells; host or cells: KT3 (EBV-transformed homozygous B cell line)

DRB1*1302 = molecular target: T10, DRB1*1302 (Homo sapiens, UniProt P01903+P01911, A100E/A169T/K41T/L162R/M171V/P40S/Q125H/Q178H/Q39Y/Q99D/R42S/S66N/T262R/V115G/W38E/Y61H); experiment: Class II peptide-binding assay DRB1*1302 (DR6w19)
T10 construct: Epstein-Barr virus (EBV) transformed homozygous cell lines were used as sources of human HLA Class II molecules; endogenous in cells; host or cells: HO301 / H0301 (EBV-transformed homozygous B cell line)
T10 sequence (P01903 26-254, other chains not shown): as above

DRB1*0404 = molecular target: T11, DRB1*0404 (Homo sapiens, UniProt P01903+P01911, A100R/A169T/F76Y/I96L/K127E/L162R/M171V/N62H/P40V/Q125Y/R42H/S133A/S149N/S66Y/V209L/W38E); experiment: Class II peptide-binding assay DRB1*0404 (DR4w14)
T11 construct: Epstein-Barr virus (EBV) transformed homozygous cell lines were used as sources of human HLA Class II molecules; endogenous in cells; host or cells: BIN40 (EBV-transformed homozygous B cell line)

DRB1*0802 = molecular target: T12, DRB1*0802 (Homo sapiens, UniProt P01903+P01911, A100R/A103L/A169T/F76Y/H45Y/I96F/K41T/L162R/M171V/P40S/Q125H/Q178H/Q39Y/Q99D/R218S/R42G/S66Y/V115G/W38E); experiment: Class II peptide-binding assay DRB1*0802 (DR8w2)
T12 construct: Epstein-Barr virus (EBV) transformed homozygous cell lines were used as sources of human HLA Class II molecules; endogenous in cells; host or cells: OLL (EBV-transformed homozygous B cell line)

[1] = known HLA-DR and DQ restricted epitopes, Table 6

Question: What does the source list for `CC[C@H](C)[C@H](NC(=O)[C@H](Cc1ccc(O)cc1)NC(=O)[C@@H]1CCCN1C(=O)[C@H](CC(=O)O)NC(=O)[C@H](CCC(=O)O)NC(=O)[C@H](CC(C)C)NC(=O)[C@@H](NC(=O)[C@H](C)N)C(C)C)C(=O)N[C@@H](CC(C)C)C(=O)N[C@@H](CC(C)C)C(=O)N[C@H](C(=O)N[C@@H](CO)C(=O)N[C@@H](CO)C(=O)N[C@@H](CCCCN)C(=O)N[C@H](C(=O)N[C@@H](CO)C(=O)O)C(C)C)C(C)C`?
Answer: pIC50 (DRB1*0301; [1]): < 4.70; pIC50 (DRB1*0401; [1]): 6.74; pIC50 (DRB1*0701; [1]): 7.14; pIC50 (DRB1*1101; [1]): 5.18; pIC50 (DRB3*0101): 5.30; pIC50 (DRB4*0101): 5.38; pIC50 (DRB5*0101): 5.60

Question: With `CC(C)C[C@H](NC(=O)[C@H](Cc1ccccc1)NC(=O)[C@H](CC(N)=O)NC(=O)[C@H](CO)NC(=O)[C@H](Cc1ccc(O)cc1)NC(=O)[C@@H](NC(=O)[C@H](CCCNC(=N)N)NC(=O)[C@H](Cc1ccccc1)NC(=O)[C@H](C)NC(=O)[C@H](CCCCN)NC(=O)[C@H](CCCNC(=N)N)NC(=O)[C@H](Cc1ccccc1)NC(=O)[C@@H](NC(=O)[C@@H](N)CC(=O)O)[C@@H](C)O)C(C)C)C(=O)N[C@@H](CCCNC(=N)N)C(=O)O` as the molecule, how does the pIC50 (DRB1*0101) read?
Answer: 7.17

Question: What about the pIC50 (DRB1*0401) of the same molecule?
Answer: 7.60

Question: And the pIC50 (DRB1*0405)?
Answer: 7.32

Question: And the pIC50 (DRB1*1101)?
Answer: 8.28

Question: And the pIC50 (DRB1*1302)?
Answer: 6.91

Question: And the pIC50 (DRB5*0101)?
Answer: 7.10

Question: With `CC(C)C[C@H](NC(=O)[C@H](Cc1ccccc1)NC(=O)[C@H](CC(N)=O)NC(=O)[C@H](CO)NC(=O)[C@H](Cc1ccc(O)cc1)NC(=O)[C@@H](NC(=O)[C@H](CCCNC(=N)N)NC(=O)[C@H](Cc1ccccc1)NC(=O)CNC(=O)[C@H](CCCCN)NC(=O)[C@H](CCCNC(=N)N)NC(=O)[C@H](Cc1ccccc1)NC(=O)[C@@H](NC(=O)[C@@H](N)CC(=O)O)[C@@H](C)O)C(C)C)C(=O)N[C@@H](CCCNC(=N)N)C(=O)O` as the molecule, how does the pIC50 (DRB1*0404) read?
Answer: 6.82

Question: What about the pIC50 (DRB1*1101) of the same molecule?
Answer: 8.00

Question: `CC(C)C[C@H](NC(=O)[C@H](CC(=O)O)NC(=O)[C@H](CC(N)=O)NC(=O)[C@H](CO)NC(=O)[C@H](Cc1ccc(O)cc1)NC(=O)[C@@H](NC(=O)[C@H](CCCNC(=N)N)NC(=O)[C@H](Cc1ccccc1)NC(=O)[C@H](CC(C)C)NC(=O)[C@H](CCCCN)NC(=O)[C@H](CCCNC(=N)N)NC(=O)[C@H](Cc1ccccc1)NC(=O)[C@@H](NC(=O)[C@@H](N)CC(=O)O)[C@@H](C)O)C(C)C)C(=O)N[C@@H](CCCNC(=N)N)C(=O)O` was tested. Which pIC50 (DRB1*0101) did it give?
Answer: 7.07

Question: And the pIC50 (DRB1*0301)?
Answer: 4.94

Question: And the pIC50 (DRB1*0401)?
Answer: 7.62

Question: And the pIC50 (DRB1*0802)?
Answer: 7.12

Question: What about the pIC50 (DRB1*1101) of the same molecule?
Answer: 8.44

Question: What about the pIC50 (DRB4*0101) of the same molecule?
Answer: 5.86

Question: How did the pIC50 (DRB1*0101; [1]) turn out when `CC[C@H](C)[C@H](NC(=O)[C@H](CCCNC(=N)N)NC(=O)[C@H](Cc1c[nH]c2ccccc12)NC(=O)[C@@H](NC(=O)[C@H](C)NC(=O)CNC(=O)[C@H](Cc1c[nH]c2ccccc12)NC(=O)[C@H](CO)NC(=O)[C@@H](N)CCC(=O)O)C(C)C)C(=O)N[C@@H](CC(=O)O)C(=O)N[C@H](C(=O)N1CCC[C@H]1C(=O)N[C@@H](CC(=O)O)C(=O)N[C@@H](CCCCN)C(=O)N[C@@H](CC(C)C)C(=O)N[C@H](C(=O)NCC(=O)N1CCC[C@H]1C(=O)N[C@@H](Cc1ccccc1)C(=O)N[C@H](C(=O)O)[C@@H](C)O)[C@@H](C)O)[C@@H](C)O` was run?
Answer: 5.60

Question: What about the pIC50 (DRB1*0301; [1]) of the same molecule?
Answer: 5.50

Question: What about the pIC50 (DRB1*0401; [1]) of the same molecule?
Answer: < 4.70

Question: And the pIC50 (DRB1*0405; [1])?
Answer: 5.76

Question: And the pIC50 (DRB1*0701; [1])?
Answer: < 4.70

Question: And the pIC50 (DRB4*0101; [1])?
Answer: 5.95

Question: What does the source list for `CC(C)C[C@H](NC(=O)CN)C(=O)N[C@@H](CCCNC(=N)N)C(=O)N[C@@H](CO)C(=O)N[C@@H](CC(C)C)C(=O)N[C@H](C(=O)N[C@H](C(=O)N[C@@H](CC(C)C)C(=O)N[C@@H](CC(C)C)C(=O)N[C@@H](CC(=O)O)C(=O)N[C@@H](C)C(=O)N[C@@H](CC(C)C)C(=O)NCC(=O)N[C@@H](C)C(=O)N[C@@H](CCC(N)=O)C(=O)O)[C@@H](C)O)[C@@H](C)O`?
Answer: pIC50 (DRB1*0101): 7.85; pIC50 (DRB1*0301): 4.89; pIC50 (DRB1*0401): 8.07; pIC50 (DRB1*0404): 8.03; pIC50 (DRB1*0405): 7.96; pIC50 (DRB1*0701): 4.99; pIC50 (DRB1*0802): 6.62; pIC50 (DRB1*1101): 8.00; pIC50 (DRB5*0101): 6.09

Question: How did the pIC50 (DRB3*0101) turn out when `CC(C)C[C@H](NC(=O)[C@@H](NC(=O)[C@H](CC(C)C)NC(=O)[C@@H](NC(=O)[C@H](CCCCN)NC(=O)[C@H](Cc1ccc(O)cc1)NC(=O)CN)C(C)C)C(C)C)C(=O)N[C@@H](CC(N)=O)C(=O)N1CCC[C@H]1C(=O)N[C@@H](CO)C(=O)N[C@H](C(=O)N[C@@H](C)C(=O)N[C@@H](C)C(=O)N[C@H](C(=O)O)[C@@H](C)O)C(C)C` was run?
Answer: < 4.70

Question: How did the pIC50 (DRB1*0404; [1]) turn out when `CC[C@H](C)[C@H](NC(=O)[C@H](CC(N)=O)NC(=O)[C@@H](N)CCC(N)=O)C(=O)N[C@@H](CC(C)C)C(=O)N[C@@H](CC(C)C)C(=O)N[C@@H](CO)C(=O)N[C@@H](CC(N)=O)C(=O)N[C@@H](C)C(=O)N1CCC[C@H]1C(=O)N[C@@H](CC(C)C)C(=O)NCC(=O)N1CCC[C@H]1C(=O)N[C@@H](CCC(N)=O)C(=O)N[C@@H](Cc1ccccc1)C(=O)N1CCC[C@H]1C(=O)O` was run?
Answer: 6.84

Question: What about the pIC50 (DRB1*0701; [1]) of the same molecule?
Answer: 6.53

Question: And the pIC50 (DRB1*0802; [1])?
Answer: 4.87

Question: What about the pIC50 (DRB1*1302; [1]) of the same molecule?
Answer: 8.28

Question: What about the pIC50 (DRB3*0101; [1]) of the same molecule?
Answer: < 4.70

Question: What about the pIC50 (DRB5*0101; [1]) of the same molecule?
Answer: < 4.70
